1 compound from patent US6743818B2, “Cyclobutaindolecarboxamide compounds” (Les Laboratoires Servier, priority 2000, dated 2004) can be followed below.

For test [1], the system named is Male mice of the NMRI strain. Description: Marble-burying test in the mouse. The class given is in vivo. As to conditions: s.c.; inhibition of spontaneous marble-burying, 30 minutes' free exploration. The source says:
This test allows evaluation of the capacity of pharmacological agents to inhibit the spontaneous marble-burying behaviour of mice, the inhibition being predictive of antidepressant and/or anti-impulsive action. Male mice of the NMRI strain (Iffa-Credo, l'Arbresle, France) weighing from 20 to 25 g on the day of the experiment are placed individually in Macrolon boxes (30×18×19 cm) containing 5 cm of sawdust and covered with a perforated plexiglass plate. Twenty four “tiger's eye” glass marbles are evenly distributed on the sawdust at the periphery of the box. At the end of 30 minutes' free exploration, the animals are removed from the box and the number of buried marbles is counted.

The next test relates to male Wistar rats. Description: Vogel conflict test. The class given is in vivo, rat. As to conditions: s.c.; for Punished licks (1 shock/20 licks): 3 minutes of test. As to the method: The test is carried out on male Wistar rats (IFFA-CREDO) weighing from 230 to 250 g, which are kept in groups of 4 on sawdust in cages in an animal house, with free access to food and drink, for 5 days before they are used, under the following conditions: temperature (21±1° C.), humidity (60±5%) and a 12 hour diurnal cycle (07:00 to 19:00 hours).
On the Monday following their arrival, the animals are transferred to the experiment room where they stay until Friday, the day of the test. For 4 days, from Monday to Thursday inclusive, the animals have access to drink for only one hour per day (from 09:00 to 10:00 hours).
On the day before the test, the animals are isolated from 15:00 hours in cages, on grills, without either food or drink.
The test is carried out in a transparent plastics cage located in a soundproofed and ventilated enclosure. The cage has a chrome steel floor. The metal tip of the bottle containing the drink enters the cage at a height of 6 cm above the metal floor. The floor and the tip of the bottle are connected by electric cables to an apparatus which records the licks of the animal and controls the administration of electric shocks. The apparatus is so regulated that the animal receives an electric shock (between tip and metal floor) every 20 licks of the tip.
On the day of the test, the animal is given an injection (s.c.) of physiological serum (control) or of the test product 30 minutes before being placed in the test cage. The session begins as soon as the animal has carried out 20 licks and received a first electric shock (duration 0.5 seconds, intensity 0.300 mA). For a period of 3 minutes, the animal receives an electric shock each time it carries out 20 licks.
The results are the numbers of licks and of shocks received by the animal during the 3 minutes of the test.
The numbers of licks and of shocks received by the treated animals are compared with those of the control animals by variance analysis, followed by a Dunnett's test with p<0.05. An anxiolytic product increases the number of licks and of shocks received by the animal compared with the controls. For information only, the average number of licks not punished in the animals which have been made thirsty is 674.9±44.5 (N=7) over 3 minutes.
The effectiveness of a product is expressed by the minimum effective dose (MED), that is to say, the lowest dose producing a significant difference compared with the controls. That dose is 2.5 mg/kg s.c. for the product of Example 1.

As to `O=C(Nc1cccnc1)N1CCc2cc3c(cc21)CC3` [Example 1, N-(3-Pyridyl)-2,3,5,6-tetrahydro-1H-cyclobuta[f]indole1-carboxamide], the “MED (minimum effective dose)” value in test [1] was 2.5 mg/kg. The “Punished licks (1 shock/20 licks)” value is 197.5 ± 59.5 in the test on male Wistar rats (dose 0.63 mg/kg, N=8); 560.1 ± 67.0* in the test on male Wistar rats (dose 2.5 mg/kg, N=8, *p < 0.05); 499.3 ± 95.3* with male Wistar rats (dose 10.0 mg/kg, N=7, *p < 0.05). Further, the “minimum effective dose (MED)” value in the test with male Wistar rats (30 minutes before test, lowest dose producing a significant difference compared with the controls (p<0.05)) is 2.5 mg/kg.
